Key:
[1] = target: T1, ERβ (Homo sapiens, UniProt Q92731); details: Example 2
[2] = target: T1, ERβ; assay: TNF-RE tkLuc repression in U2OS cells with ERβ; type: cell-based; set-up: expressed in transfected cells
[3] = test system: TNF-RE tkLuc; assay: Effect of antiestrogens on TNF-RE tkLuc (Example 2); type: cell-based, human; details: in contrast to E2
[4] = target: T1, ERβ; assay: ERE-tk-Luc luciferase assay in U2OS cells with ERβ; type: cell-based; set-up: expressed in transfected cells; host or cells: U2OS (human osteosarcoma); details: competition with the extract
[5] = test system: estrogen receptor-positive breast cancer; details: five years of therapy; cited from earlier work
[6] = test system: primary invasive breast cancer; details: women at high risk for breast cancer; cited from earlier work

T1 sequence (Q92731 whole entry): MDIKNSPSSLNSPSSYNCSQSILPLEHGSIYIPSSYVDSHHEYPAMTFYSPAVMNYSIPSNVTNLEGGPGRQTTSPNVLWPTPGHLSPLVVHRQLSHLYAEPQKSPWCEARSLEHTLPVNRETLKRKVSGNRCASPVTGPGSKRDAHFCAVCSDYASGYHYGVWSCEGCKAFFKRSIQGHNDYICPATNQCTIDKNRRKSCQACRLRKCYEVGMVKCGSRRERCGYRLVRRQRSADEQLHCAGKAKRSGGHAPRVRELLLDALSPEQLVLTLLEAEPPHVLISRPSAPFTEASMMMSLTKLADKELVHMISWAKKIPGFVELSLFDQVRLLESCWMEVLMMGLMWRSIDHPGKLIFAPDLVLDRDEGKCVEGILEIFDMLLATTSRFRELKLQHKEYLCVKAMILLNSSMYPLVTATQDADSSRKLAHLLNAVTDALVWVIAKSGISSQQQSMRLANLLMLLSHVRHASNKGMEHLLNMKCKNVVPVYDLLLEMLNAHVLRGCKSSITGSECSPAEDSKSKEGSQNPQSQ

C[C@]12CC[C@@H]3c4ccc(O)cc4CC[C@H]3[C@@H]1CC[C@@H]2O [E2, estradiol]
repression of TNF-α activation of TNF-RE tkLuc with ERβ [1]: 60-80%
repression of TNF-α activation of TNF-RE with ERβ [2]: 100%

C[C@]12CC[C@@H]3c4ccc(O)cc4C[C@@H](CCCCCCCCC[S+]([O-])CCCC(F)(F)C(F)(F)F)[C@H]3[C@@H]1CC[C@@H]2O (stereo partly drawn) [ICI 182, 780]
activation of TNF-RE tkLuc [3]: 2 fold

O=C(c1ccc(OCCN2CCCCC2)cc1)c1c(-c2ccc(O)cc2)sc2cc(O)ccc12 [raloxifene]
activation of TNF-RE tkLuc [3]: 2 fold
effect of SERM antagonist on extract-stimulated ERE with ERβ (FIG. 6) [4]: inhibited

CC/C(=C(\c1ccccc1)c1ccc(OCCN(C)C)cc1)c1ccccc1 [tamoxifen]
activation of TNF-RE tkLuc [3]: 2 fold
reduction of mortality from breast cancer [5]: 22%
reduction of risk of recurrences [5]: 42%
reduction of risk of primary invasive breast cancer [6]: 49%
